Measurements taken from patent publication US20230263825A1, “ANTI-CANCER ACTIVITY OF PERBORATE SALTS” (priority 2020, published 2023).
“Also recorded” adds a separate entry of the source.

Assays:
Format in all cases: cell-based
[1] = tested on: PSN-1 (a pancreatic adenocarcinoma cell line); test: MTS cytotoxicity assay, single agents and combinations; settings: PSN-1, alone
Protocol: An MTS reduction (MTS (3-(4,5-dimethylthiazol-2-yl)-5-(3-carboxymethoxyphenyl)-2-(4-sulfophenyl)-2H-tetrazolium) assay) was conducted to analyze the cytotoxic effect of sodium perborate tetrahydrate on lung, chordoma and pancreatic cells and normal cells. In this method, cell viability is determined via the activity of mitochondrial dehydrogenase enzyme, which reduces the tetrazolium dye MTS to its […] formazan (absorbance maximum of 490 nm in PBS).
Cells were counted and seeded in 96-well culture dishes. […] The positive control comprised 20% Dimethyl Sulfoxide and the negative control comprised complete growth media. Seeding densities were as follows: DMS114: 20.000 cells/well; MRC5: 5.000 cells/well; CH22: 2.000 cells/well; JHC7, UM-Chor1, MUG-Chor1, UCH1 and NPH: 5.000 cells/well; PSN1: 10.000 cells/well; BxPC3 and ASPC: 7.500 cells/well. The effect of sodium perborate tetrahydrate on cell viability was measured as follows. The cell culture medium was discarded and 100 μl of MTS solution (10% glucose solution and 1% MTS-PMS solution in PBS) was added into each well. After 1 hour incubation in a humidified incubator, an absorbance reading was taken to determine mitochondrial dehydrogenase activity and cell survival was calculated relative to the negative control.

[2] = tested on: DMS114 cells; test: Video analysis of cell movement and division; settings: 72 hour treatment
Protocol: (§1) The DMS114 and MRC5 cells from Example 2 were analyzed during the 3 day treatment period with sodium perborate tetrahydrate. Roughly 20 photos/hour were taken of the cells over the 72 hour (3 day) period. The resulting 1500 were merged to create a video which was used to observe the effect of sodium perborate on movement and division of DMS114 and MRC5 cells. […] FIGS. 21A and 21B show DMS114 cells at the start and end of the 72 hour treatment period. FIGS. 22A and 22B show MRC5 cells at the start and end of the 72 hour treatment period.

[3] = tested on: MRC5 cells; test: Video analysis of cell movement and division
Protocol: as §1

`O.O.O.O.[Na+].[O-]B1OO1` [sodium perborate tetrahydrate] was tested, and the EC50 concentration [1] was 7.5 µg/mL, the “DMS114 cells whose movement was stopped” value [2] was roughly 100% and the “division and movement of healthy cells” value [3] was “slowing cell division and movement of healthy cells to some extent; also recorded: only slowed the division and movement”.
